# From US20020193425A1, “Cancer chemopreventative compounds and compositions and methods of treating cancers” (priority 2001, published 2002)
# Read-outs that look alike come from different tables or passages of the source.
# Key:
# [1] = test system: HL-60 (human promyelocytic) cells; test: HL-60 cell differentiation of quassinoids, NBT reduction; type: cell-based
# Procedure: (§1) Induction of differentiation was determined by the ability of treated cells to produce superoxide anions (nitroblue tetrazolium (NBT)-reduction), a functional marker of mature macrophages or granulocytes. Proliferation capacity is equivalent to cell growth and was measured by incorporation of [3H]thymidine into DNA over a period of 18 h, and cytotoxic activity was evaluated by the loss of membrane integrity as shown by trypan blue exclusion. […] Although members of the brusatol and glaucarubolone series were active, when comparing members of both series that varied only in the positioning of the epoxymethano bridge, great differences were noted, as shown with yadianzolide C (5) and glaucarubolone (24), and analogues 4 (brusatol series) and 32 (glaucarubolone series).
# (§2) HL-60 (human promyelocytic) cells were tested using a 4-day incubation protocol. In brief, cells in log phase (approximately 10^6 cells/mL) were diluted to […] and preincubated overnight (18 h) in 24-well plates to allow cell-growth recovery. Then, samples dissolved in DMSO were added, keeping the final DMSO concentration at 0.1% (v/v). Control cultures were treated with the same concentration of DMSO. After 4 days of incubation, the cells were analyzed to determine the percentage of cells undergoing maturation as determined by NBT reduction. Concomitantly, the effect on viability and proliferation of HL-60 cells was determined. In each experiment, 1α, 25-dihydroxyvitamin D3 (EC50=0.01 μM) and brusatol (EC50=0.07 μM) were used as reference controls. EC50 and IC50 values were calculated using 5-7 test concentrations (in duplicate), and consistent results were obtained, indicating the data reported for the related quassinoids are reliable.
# (1) Nitroblue Tetrazolium (NBT) Reduction. Evaluation of NBT reduction was used to assess the ability of sample-treated HL-60 cells to produce superoxide when challenged with 12-O-tetradecanoylphorbol 13-acetate (TPA). A 1:1 v/v) mixture of a cell suspension (10^6 cells) and TPA/NBT solution (2 mg/mL NBT and 1 μg/mL TPA in phosphate buffered solution) was incubated for 1 h at 37° C. Positive cells reduce NBT yielding intracellular black-blue formazan deposits, which were quantified by microscopic examination of >200 cells. Results were expressed as a percentage of positive cells.
# [2] = test system: human promyelocytic leukemia (HL-60) cells; settings: cited from earlier work
# [3] = test system: HL-60 (human promyelocytic) cells; test: HL-60 cell proliferation assay of quassinoids, [3H]thymidine incorporation; type: cell-based; settings: for IC50: 4-day incubation, [3H]thymidine incorporation, read-out: inhibition of proliferation (IC50)
# Procedure: as §1, §2
# (3) Cell Proliferation Assay. […] Cells were then collected on glass fiber filters (90×120 mm; Wallac, Turku, Finland) using a TOMTEC Harvester 96®.
# [4] = HL-60 cytotoxicity of quassinoids, trypan blue exclusion; type: cell-based, human; settings: human, HL-60 cells; HL-60; 4-day incubation; trypan blue exclusion; read-out: cytotoxicity (IC50)
# Procedure: as §1, §2
# (§3) (2) Cytotoxicity. Since loss of membrane integrity is an early feature of necrotic cells and a late feature of apoptotic cells, trypan blue, a […] blue dye, was used to stain cells with compromised plasma membranes, while leaving intact cells unstained. Cells […] of trypan blue (0.2% w/v in PBS), incubated for at least 5 min at room temperature, and counted using a hematocytometer. Viability percentages were calculated with duplicate samples.
# [5] = test system: HL-60 (human promyelocytic) cells; test: as above; type: cell-based; settings: HL-60; 4-day incubation; trypan blue exclusion
# Procedure: as §1, §2, §3
# [6] = test system: DMBA-induced preneoplastic lesion formation in mouse mammary organ culture; test: Inhibition of DMBA-induced preneoplastic lesion formation in mouse mammary organ culture (MMOC); type: cell-based; settings: for % inhibition of DMBA-induced preneoplastic lesion formation: quassinoid (2 μM), in comparison with a DMBA control
# Procedure: The identification of potential inhibitors of DMBA-induced preneoplastic lesion formation in mammary organ culture has been described previously. Briefly, four-week old BALB/c female mice (Charles River) were pretreated for nine days with 1 μg estradiol and 1 mg progesterone. The thoracic pair of mammary glands was dissected on silk and incubated with growth-promoting hormones in the presence of test compounds (2 μM) for 10 days. DMBA ([…]) was included in the medium (containing […]) for 24 hours on the third day of culture to induce preneoplastic mammary lesions. Following 10 days of growth promoting phase, all hormones except insulin were withdrawn and the glands were allowed to regress to lobuloalveolar structures during a 14-day incubation period. Glands then were fixed in 10% buffered formalin and stained with alum carmine. Incidence of lesion formation (percentage of glands per group with mammary lesions) was recorded, and percent inhibition was calculated by comparison with the DMBA control group that was not treated with test sample. Active samples induce 60% inhibition, based on historical controls.
# [7] = HL-60, 4-day incubation, NBT-reduction, read-out: induction of differentiation (EC50)
# [8] = Homo sapiens, HL-60, 96 h, read-out: induction of differentiation (EC50, μM)
Compound,"EC50 [1, 7]",IC50 [3],IC50 [5],also measured
"C=C1/C(=C\C=C2/CCC[C@]3(C)[C@@H]([C@H](C)CCCC(C)(C)O)CC[C@@H]23)C[C@@H](O)C[C@@H]1O [1α, 25-dihydroxyvitamin D3, reference compound]",0.01 µM,,,
"C[C@@]1(CO)[C@H](O)CC[C@@]2(C)[C@H]1CC[C@H]1C[C@@H]3C[C@@]12CC[C@]3(O)CO [aphidicolin, reference compound]",,,,maturation of HL-60 cells ([1]; data not shown): incapable of inducing maturation
COc1cc([C@H]2Oc3c(OC)cc4ccc(=O)oc4c3O[C@@H]2CO)ccc1O [cleomiscosin A],,,,activity in the HL-60 test system [2]: inactive
"CC[C@@](C)(OC(C)=O)C(=O)O[C@H]1C(=O)O[C@@H]2C[C@H]3C(C)=CC(=O)[C@@H](O)[C@]3(C)[C@H]3[C@@H](O)[C@H](O)[C@@]4(C)OC[C@]32[C@@H]14 [compound 3, quassimarin]",,,,"IC50 ([3]; Homo sapiens): 60 ± 5 nM; selectivity index ([3]; ratio of cytotoxic IC50 over antiproliferative IC50): 2.2 ± 0.5; EC50 [1, 8]: 0.09 ± 0.001 µM; IC50 at 4 days [4]: 130 ± 8 nM"
"CC[C@@H](C)C(=O)O[C@H]1C(=O)O[C@@H]2C[C@H]3C(C)=CC(=O)[C@@H](O)[C@]3(C)[C@H]3[C@@H](O)[C@H](O)[C@@]4(C)OC[C@]32[C@@H]14 [compound 4, simalikalactone D]",,,,"IC50 ([3]; Homo sapiens): > 200 nM; EC50 [1, 8]: > 0.2 µM; IC50 at 4 days [4]: 200 ± 40 nM"
"CC[C@@](O)(CC(=O)O[C@@H]1C(=O)O[C@@H]2C[C@@H]3C(C)=CC(=O)[C@H](O)[C@]3(C)[C@H]3[C@]4(O)OC[C@]32[C@@H]1[C@@H](C)[C@H]4O)C(C)C [compound 10, Peninsularinone]",0.019 ± 0.0004 µM,9 ± 1 nM,13 ± 1 nM,activity in the MMOC model ([6]; at concentrations as high as 2 mM): inactive; % inhibition of DMBA-induced preneoplastic lesion formation [6]: 44%
"CC1=CC(=O)[C@@H](O)[C@]2(C)[C@H]3[C@]4(O)OC[C@]35[C@H]([C@@H](C)[C@H]4O)[C@@H](O)C(=O)O[C@@H]5C[C@@H]12 [compound 24, glaucarubolone]",~1.3 µM,400 ± 30 nM,1300 ± 200 nM,
"CC[C@](C)(O)C(=O)O[C@H]1C(=O)O[C@@H]2C[C@H]3C(C)=CC(=O)[C@@H](O)[C@]3(C)[C@H]3[C@@]4(O)OC[C@]32[C@@H]1[C@@H](C)[C@H]4O [compound 25, glaucarubinone]",1.8 ± 0.09 µM,500 ± 90 nM,1000 ± 100 nM,
"CC1=CC(=O)[C@@H](O)[C@]2(C)[C@H]3[C@@]4(O)OC[C@@]35[C@@H](C[C@@H]12)OC(=O)C[C@H]5[C@@H](C)[C@H]4O [compound 26, chaparrinone]",~2.4 µM,1200 ± 200 nM,5000 ± 300 nM,% inhibition of DMBA-induced preneoplastic lesion formation [6]: 25%
bruceoside B,,,,activity in the HL-60 test system [2]: inactive
samaderin B [compound 48],1 ± 0.02 µM,400 ± 50 nM,> 2000 nM,% inhibition of DMBA-induced preneoplastic lesion formation [6]: 0%
yadanziolide C [compound 5],10 ± 1.5 µM,1500 ± 80 nM,> 10000 nM,
